Results from US10351718B2, “Optical filter and imaging device” (AGC Inc., priority 2015, dated 2019).

What was measured:
[1] = Absorption characteristic of the dye in dichloromethane; assay type: physicochemical; details: for λ80 (wavelength with 80% transmittance on shorter wavelength side of λmax) / λmax − λ80: dichloromethane, transmittance at λmax set to 10%; for εA (maximum absorption coefficient in a wavelength of 430 to 550 nm) / εB (maximum absorption coefficient in a wavelength of 670 to 730 nm) / εB/εA / λmax (maximum absorption wavelength): dissolved in dichloromethane
Method: The dyes obtained above were each dissolved in dichloromethane, and using an ultraviolet-visible spectrophotometer (made by Hitachi High Technologies Co., Ltd., U-4100 type), each spectral transmittance curve was measured, from which a maximum absorption wavelength λmax, a wavelength λ80 with which the transmittance becomes 80% on a shorter wavelength side than the maximum absorption wavelength with the transmittance at the maximum absorption wavelength set to 10%, the difference between the maximum absorption wavelength λmax and the wavelength λ80 (λmax−λ80), a maximum absorption coefficient εA in a wavelength of 430 to 550 nm, a maximum absorption coefficient εB in a wavelength of 670 to 730 nm, and a ratio of these (εB/εA) were calculated. Note that measurement of the dye (A9) was not performed because its solubility was low. Further, for each of the following spectral transmittance curves, an ultraviolet-visible spectrophotometer (made by Hitachi High Technologies Co., Ltd., U-4100 type) was used.

[2] = Solubility of dye to resin solution; assay type: physicochemical; details: 12.5 mass % polyester resin OKP850 in cyclohexanone:MIBK 1:1, 50° C.
Method: Regarding several kinds of the dyes obtained above, solubility to a resin solution was evaluated. In a solubility test, as the resin solution, there was used a solution having a resin concentration of 12.5 mass % that was prepared by dissolving a polyester resin (product name: OKP850 made by Osaka Gas Chemicals Co., Ltd.) in a mixed solvent (cyclohexanone:methyl isobutyl ketone (MIBK)=1:1). Results are illustrated in Table 5 together with the kinds of the used dyes. Incidentally, the temperature of the resin solution in the solubility test was 50° C., the dye was put into the resin solution, the resultant resin solution was stirred for two hours, and whether or not the dye was dissolved was observed visually. Evaluation criteria of the solubility are as follows.
A: Solubility greater than 10 mass %
B: Solubility greater than 5 mass % and 10 mass % or less
C: Solubility 5 mass % or less

Row | Structure (SMILES) | λ80 (wavelength with 80% transmittance on shorter wavelength side of λmax) [1] [nm] | λmax − λ80 [1] [nm] | εA (maximum absorption coefficient in a wavelength of 430 to 550 nm) [1] | εB (maximum absorption coefficient in a wavelength of 670 to 730 nm) [1] | εB/εA [1] | λmax (maximum absorption wavelength) [1] [nm] | Solubility Evaluation [2] | Solubility ([2]; stirred two hours, visual) [mass %]
1 | CCCS(=O)(=O)Nc1cc2c(cc1C1=C([O-])C(=c3cc4c(cc3NS(=O)(=O)CCC)=[N+](C(C)C)C(C)C4(C)C)C1=O)C(C)(C)C(C)N2C(C)C (centres unmarked) [Dye A1-13] | 645 | 53 | 0.0113 | 1 | 88.5 | 698 | – | –
2 | CC1N(C)c2cc(NS(=O)(=O)c3ccccc3C(F)(F)F)c(C3=C([O-])C(=c4cc5c(cc4NS(=O)(=O)c4ccccc4C(F)(F)F)=[N+](C)C(C)C5(C)C)C3=O)cc2C1(C)C (centres unmarked) [Dye A1-4] | 633 | 62 | 0.0104 | 1 | 96.2 | 695 | – | –
3 | CC(C)N1c2cc(N3S(=O)(=O)C(F)(F)C(F)(F)S3(=O)=O)c(C3=C([O-])C(=c4cc5c(cc4N4S(=O)(=O)C(F)(F)C(F)(F)S4(=O)=O)=[N+](C(C)C)C(C)C5(C)C)C3=O)cc2C(C)(C)C1C (centres unmarked) [Dye A1-20] | 651 | 52 | 0.0100 | 1 | 100 | 703 | – | –
4 | CCCCCCCCS(=O)(=O)Nc1cc2c(cc1C1=C([O-])C(=c3cc4c(cc3NS(=O)(=O)CCCCCCCC)=[N+](C(C)C)C(C)(C)C4(C)C)C1=O)C(C)(C)C(C)(C)N2C(C)C [Dye A1-24] | 651 | 49 | 0.0110 | 1 | 89.7 | 700 | – | –
5 | CCCCCCCCS(=O)(=O)Nc1cc2c(cc1C1=C([O-])C(=c3cc4c(cc3NS(=O)(=O)CCCCCCCC)=[N+](C(C)C)C(C)(CC)C4(C)C)C1=O)C(C)(C)C(C)(CC)N2C(C)C (centres unmarked) [Dye A1-25] | 653 | 51 | 0.0130 | 1 | 77.6 | 704 | – | –
6 | Cc1ccccc1S(=O)(=O)Nc1cc2c(cc1C1=C([O-])C(=c3cc4c(cc3NS(=O)(=O)c3ccccc3C)=[N+](C(C)C)C(C)C4(C)C)C1=O)C(C)(C)C(C)N2C(C)C (centres unmarked) [Dye A1-18] | 649 | 50 | 0.0110 | 1 | 90.9 | 699 | – | –
7 | CCC(C)(C)N1c2cc(NS(=O)(=O)C(F)(F)C(F)(F)C(F)(F)C(F)(F)F)c(C3=C([O-])C(=c4cc5c(cc4NS(=O)(=O)C(F)(F)C(F)(F)C(F)(F)C(F)(F)F)=[N+](C(C)(C)CC)C(C)C5(C)C)C3=O)cc2C(C)(C)C1C (centres unmarked) [Dye A1-23] | 663 | 50 | 0.0124 | 1 | 80.6 | 713 | – | –
8 | CC1N(C)c2cc(NS(=O)(=O)C(F)(F)C(F)(F)C(F)(F)C(F)(F)F)c(C3=C([O-])C(=c4cc5c(cc4NS(=O)(=O)C(F)(F)C(F)(F)C(F)(F)C(F)(F)F)=[N+](C)C(C)C5(C)C)C3=O)cc2C1(C)C (centres unmarked) [Dye A1-3] | 637 | 61 | 0.0065 | 1 | 154 | 698 | – | –
9 | CC(C)N1c2cc(NS(=O)(=O)C(F)(F)C(F)(F)C(F)(F)C(F)(F)F)c(C3=C([O-])C(=c4cc5c(cc4NS(=O)(=O)C(F)(F)C(F)(F)C(F)(F)C(F)(F)F)=[N+](C(C)C)C(C)C5(C)C)C3=O)cc2C(C)(C)C1C (centres unmarked) [Dye A1-17] | 653 | 52 | 0.0081 | 1 | 123 | 705 | – | –
10 | CCCCCCCCS(=O)(=O)Nc1cc2c(cc1C1=C([O-])C(=c3cc4c(cc3NS(=O)(=O)CCCCCCCC)=[N+](C(C)C)C(C)(C(C)C)C4(C)C)C1=O)C(C)(C)C(C)(C(C)C)N2C(C)C (centres unmarked) [Dye A1-26] | 654 | 53 | 0.0140 | 1 | 71.6 | 707 | – | –
11 | CCC(C)(C)N1c2cc(NS(=O)(=O)C(F)(F)F)c(C3=C([O-])C(=c4cc5c(cc4NS(=O)(=O)C(F)(F)F)=[N+](C(C)(C)CC)C(C)C5(C)C)C3=O)cc2C(C)(C)C1C (centres unmarked) [Dye A1-22] | 660 | 51 | 0.0122 | 1 | 82.0 | 711 | – | –

Further lines, results first:

Row | λ80 (wavelength with 80% transmittance on shorter wavelength side of λmax) [1] [nm] | λmax − λ80 [1] [nm] | εA (maximum absorption coefficient in a wavelength of 430 to 550 nm) [1] | εB (maximum absorption coefficient in a wavelength of 670 to 730 nm) [1] | εB/εA [1] | λmax (maximum absorption wavelength) [1] [nm] | Solubility Evaluation [2] | Solubility ([2]; stirred two hours, visual) [mass %] | Structure (SMILES)
12 | 647 | 52 | 0.0121 | 1 | 82.6 | 699 | – | – | CCCc1ccc(S(=O)(=O)Nc2cc3c(cc2C2=C([O-])C(=c4cc5c(cc4NS(=O)(=O)c4ccc(CCC)cc4)=[N+](C(C)C)C(C)C5(C)C)C2=O)C(C)(C)C(C)N3C(C)C)cc1 (centres unmarked) [Dye A1-14]
13 | 648 | 52 | 0.0110 | 1 | 90.9 | 700 | – | – | CC(C)N1c2cc(NS(=O)(=O)c3ccc(F)cc3)c(C3=C([O-])C(=c4cc5c(cc4NS(=O)(=O)c4ccc(F)cc4)=[N+](C(C)C)C(C)C5(C)C)C3=O)cc2C(C)(C)C1C (centres unmarked) [Dye A1-11]
14 | 634 | 61 | 0.0117 | 1 | 85.5 | 695 | C (5 mass % or less) | 3 | CC1N(C)c2cc(NS(=O)(=O)c3ccc(C(F)(F)F)cc3)c(C3=C([O-])C(=c4cc5c(cc4NS(=O)(=O)c4ccc(C(F)(F)F)cc4)=[N+](C)C(C)C5(C)C)C3=O)cc2C1(C)C (centres unmarked) [Dye A1-8]
15 | 648 | 51 | 0.0126 | 1 | 79.4 | 699 | – | – | CCCCCc1ccc(S(=O)(=O)Nc2cc3c(cc2C2=C([O-])C(=c4cc5c(cc4NS(=O)(=O)c4ccc(CCCCC)cc4)=[N+](C(C)C)C(C)C5(C)C)C2=O)C(C)(C)C(C)N3C(C)C)cc1 (centres unmarked) [Dye A1-19]
16 | 633 | 60 | 0.0139 | 1 | 71.9 | 693 | – | – | CCCc1ccc(S(=O)(=O)Nc2cc3c(cc2C2=C([O-])C(=c4cc5c(cc4NS(=O)(=O)c4ccc(CCC)cc4)=[N+](C)C(C)C5(C)C)C2=O)C(C)(C)C(C)N3C)cc1 (centres unmarked) [Dye A1-6]
17 | 648 | 52 | 0.0116 | 1 | 86.2 | 700 | – | – | Cc1ccc(S(=O)(=O)Nc2cc3c(cc2C2=C([O-])C(=c4cc5c(cc4NS(=O)(=O)c4ccc(C)cc4)=[N+](C(C)C)C(C)C5(C)C)C2=O)C(C)(C)C(C)N3C(C)C)cc1 (centres unmarked) [Dye A1-12]
18 | 633 | 60 | 0.0147 | 1 | 68.0 | 693 | – | – | CCCCCc1ccc(S(=O)(=O)Nc2cc3c(cc2C2=C([O-])C(=c4cc5c(cc4NS(=O)(=O)c4ccc(CCCCC)cc4)=[N+](C)C(C)C5(C)C)C2=O)C(C)(C)C(C)N3C)cc1 (centres unmarked) [Dye A1-7]
